In ChEMBL document CHEMBL5365426, “Modification of N-hydroxycytidine yields a novel lead compound exhibiting activity against the Venezuelan equine encephalitis virus” (Bioorg Med Chem Lett, 2023):

Tests used:
[1] = test system: Venezuelan equine encephalitis virus; experiment: Antiviral activity against Venezuelan equine encephalitis virus infected in human MRC5 cells assessed as virus induced cell death at 100 uM relative to control; type: functional
[2] = test system: Venezuelan equine encephalitis virus; experiment: Antiviral activity against Venezuelan equine encephalitis virus infected in human MRC5 cells assessed as inhibition of viral infection at 100 uM relative to control; type: functional
[3] = Cytotoxicity against human MRC-5 cells assessed as reduction in cell viability; type: toxicity, cell-based, MRC5
[4] = test system: Venezuelan equine encephalitis virus; experiment: Antiviral activity against Venezuelan equine encephalitis virus infected in human MRC5 cells assessed as inhibition of virus induced cytopathic effect; type: functional, organism-based
[5] = Safety index, ratio of CC50 for cytotoxicity against human MRC-5 cells to EC50 for antiviral activity against Venezuelan equine encephalitis virus infected in human MRC5 cells; type: toxicity, cell-based; details: read-out: Ratio CC50/EC50

O=c1[nH]cc(CO)c(=O)[nH]1
Activity [1]: 7.97% | inhibition at 100 µM [2]: 16.8%

O=c1[nH]cc(COCc2ccccc2)c(=O)[nH]1
Activity [1]: 0.22% | inhibition at 100 µM [2]: 9.66%

O=c1[nH]c(=O)n([C@@H]2O[C@H](CO)[C@@H](O)[C@H]2O)cc1COCc1ccccc1Cl
Activity [1]: 12.17% | inhibition at 100 µM [2]: 30.9%

CC(C)(C)C(OCc1cn([C@@H]2O[C@H](CO)[C@@H](O)[C@H]2O)c(=O)[nH]/c1=N\O)c1ccccc1Cl (stereo partly specified)
Activity [1]: 30.28% | CC50 [3]: 135 µM | inhibition at 100 µM [2]: 95.3% | EC50 [4]: 37.6 µM | selectivity ratio [5]: 3.59

CC(C)C(OCc1cn([C@@H]2O[C@H](CO)[C@@H](O)[C@H]2O)c(=O)[nH]c1=O)c1ccccc1 (stereo partly specified)
Activity [1]: 9.09% | inhibition at 100 µM [2]: 29%

Cc1ccccc1C(OCc1cn([C@@H]2O[C@H](CO)[C@@H](O)[C@H]2O)c(=O)[nH]/c1=N\O)C(C)(C)C (stereo partly specified)
Activity [1]: 18.59% | inhibition at 100 µM [2]: 24.4%

CC(C)(C)C(OCc1cn([C@@H]2O[C@H](CO)[C@@H](O)[C@H]2O)c(=O)[nH]c1=O)c1ccccc1 (stereo partly specified)
Activity [1]: 17.18% | inhibition at 100 µM [2]: 16.6%

CCC(OCc1c[nH]c(=O)[nH]c1=O)c1ccccc1 (stereo unspecified)
Activity [1]: 6.21% | inhibition at 100 µM [2]: 24.8%

CC(C)(C)C(OCc1cn([C@@H]2O[C@H](CO)[C@@H](O)[C@H]2O)c(=O)[nH]c1=N)c1ccccc1Cl (stereo partly specified)
Activity [1]: 18.8% | inhibition at 100 µM [2]: 29.3%

CC(C)C(OCc1cn([C@@H]2O[C@H](CO)[C@@H](O)[C@H]2O)c(=O)[nH]c1=N)c1ccccc1 (stereo partly specified)
Activity [1]: 7.99% | inhibition at 100 µM [2]: 28.2%

N=c1[nH]c(=O)n([C@@H]2O[C@H](CO)[C@@H](O)[C@H]2O)cc1COC(c1ccccc1)C1CCCCC1 (stereo partly specified)
Activity [1]: 17.83% | inhibition at 100 µM [2]: 24.9%

N=c1[nH]c(=O)n([C@@H]2O[C@H](CO)[C@@H](O)[C@H]2O)cc1COCc1ccccc1Cl
Activity [1]: 10.11% | inhibition at 100 µM [2]: 29%

CC(OCc1cn([C@@H]2O[C@H](CO)[C@@H](O)[C@H]2O)c(=O)[nH]/c1=N\O)c1ccccc1 (stereo partly specified)
Activity [1]: 5.54% | inhibition at 100 µM [2]: 10.5%

Cc1ccccc1C(OCc1cn([C@@H]2O[C@H](CO)[C@@H](O)[C@H]2O)c(=O)[nH]c1=O)C(C)(C)C (stereo partly specified)
Activity [1]: 27.83% | inhibition at 100 µM [2]: 34%

CC(OCc1cn([C@@H]2O[C@H](CO)[C@@H](O)[C@H]2O)c(=O)[nH]c1=N)c1ccccc1 (stereo partly specified)
Activity [1]: 11.51% | inhibition at 100 µM [2]: 31%

CC(C)C(OCc1c[nH]c(=O)[nH]c1=O)c1ccccc1 (stereo unspecified)
Activity [1]: 7.76% | inhibition at 100 µM [2]: 5.87%

CCC(OCc1cn([C@@H]2O[C@H](CO)[C@@H](O)[C@H]2O)c(=O)[nH]/c1=N\O)c1ccccc1 (stereo partly specified)
Activity [1]: 4.87% | inhibition at 100 µM [2]: 10.5%

N=c1[nH]c(=O)n([C@@H]2O[C@H](CO)[C@@H](O)[C@H]2O)cc1COCc1ccccc1
Activity [1]: 18.86% | inhibition at 100 µM [2]: 24.9%

CC(C)C(OCc1cn([C@@H]2O[C@H](CO)[C@@H](O)[C@H]2O)c(=O)[nH]/c1=N\O)c1ccccc1 (stereo partly specified)
Activity [1]: 9.54% | inhibition at 100 µM [2]: 16.5%

CC(C)(C)C(OCc1c[nH]c(=O)[nH]c1=O)c1ccccc1 (stereo unspecified)
Activity [1]: 4.02% | inhibition at 100 µM [2]: 11.7%

O=c1[nH]/c(=N\O)c(COC(c2ccccc2)C2CCCCC2)cn1[C@@H]1O[C@H](CO)[C@@H](O)[C@H]1O (stereo partly specified)
Activity [1]: 25.09% | inhibition at 100 µM [2]: 35.5%

Cc1ccccc1C(OCc1c[nH]c(=O)[nH]c1=O)C(C)(C)C (stereo unspecified)
Activity [1]: 3.54% | inhibition at 100 µM [2]: 21.4%

O=c1[nH]c(=O)n([C@@H]2O[C@H](CO)[C@@H](O)[C@H]2O)cc1COCc1ccccc1
Activity [1]: 22.88% | inhibition at 100 µM [2]: 25.5%

O=c1[nH]/c(=N\O)c(COCc2ccccc2)cn1[C@@H]1O[C@H](CO)[C@@H](O)[C@H]1O
Activity [1]: 16.09% | inhibition at 100 µM [2]: 12.4%

O=c1[nH]/c(=N\O)c(CO)cn1[C@@H]1O[C@H](CO)[C@@H](O)[C@H]1O
Activity [1]: 4.99% | inhibition at 100 µM [2]: 5.24%

O=c1[nH]cc(COC(c2ccccc2)C2CCCCC2)c(=O)[nH]1 (stereo unspecified)
Activity [1]: 8.05% | inhibition at 100 µM [2]: 10.5%

CC(C)(C)C(OCc1cn([C@@H]2O[C@H](CO)[C@@H](O)[C@H]2O)c(=O)[nH]/c1=N\O)c1ccccc1 (stereo partly specified)
Activity [1]: 20.09% | inhibition at 100 µM [2]: 30.3%

CCC(OCc1cn([C@H]2O[C@H](CO)[C@@H](O)[C@H]2O)c(=O)[nH]c1=O)c1ccccc1 (stereo partly specified)
Activity [1]: 20.81% | inhibition at 100 µM [2]: 26.3%

CC(C)(C)C(OCc1c[nH]c(=O)[nH]c1=O)c1ccccc1Cl (stereo unspecified)
Activity [1]: 4.74% | inhibition at 100 µM [2]: 11.6%

O=c1[nH]c(=O)n([C@H]2O[C@H](CO)[C@@H](O)[C@H]2O)cc1COCc1ccccc1
Activity [1]: 11.03% | inhibition at 100 µM [2]: 23%

N=c1[nH]c(=O)n([C@@H]2O[C@H](CO)[C@@H](O)[C@H]2O)cc1CO
Activity [1]: 29.79% | inhibition at 100 µM [2]: 12.2%

CC(OCc1c[nH]c(=O)[nH]c1=O)c1ccccc1 (stereo unspecified)
Activity [1]: 11.63% | inhibition at 100 µM [2]: 10.1%

CC(OCc1cn([C@@H]2O[C@H](CO)[C@@H](O)[C@H]2O)c(=O)[nH]c1=O)c1ccccc1 (stereo partly specified)
Activity [1]: 5.05% | inhibition at 100 µM [2]: 16.8%

O=c1[nH]c(=O)n([C@H]2O[C@H](CO)[C@@H](O)[C@H]2O)cc1COCc1ccccc1Cl
Activity [1]: 12.73% | inhibition at 100 µM [2]: 18.8%

O=c1[nH]cc(COCc2ccccc2Cl)c(=O)[nH]1
Activity [1]: 9.35% | inhibition at 100 µM [2]: 12.9%

CCC(OCc1cn([C@@H]2O[C@H](CO)[C@@H](O)[C@H]2O)c(=O)[nH]c1=N)c1ccccc1 (stereo partly specified)
Activity [1]: 8.31% | inhibition at 100 µM [2]: 14.3%

O=c1[nH]c(=O)n([C@@H]2O[C@H](CO)[C@@H](O)[C@H]2O)cc1CO
Activity [1]: 11.71% | inhibition at 100 µM [2]: 17.4%

Cc1ccccc1C(OCc1cn([C@@H]2O[C@H](CO)[C@@H](O)[C@H]2O)c(=O)[nH]c1=N)C(C)(C)C (stereo partly specified)
Activity [1]: 22.95% | inhibition at 100 µM [2]: 34.4%

O=c1[nH]/c(=N\O)c(COCc2ccccc2Cl)cn1[C@@H]1O[C@H](CO)[C@@H](O)[C@H]1O
Activity [1]: 6.38% | inhibition at 100 µM [2]: 41.1%

CC(C)C(OCc1cn([C@H]2O[C@H](CO)[C@@H](O)[C@H]2O)c(=O)[nH]c1=O)c1ccccc1 (stereo partly specified)
Activity [1]: 17.19% | inhibition at 100 µM [2]: 20.5%

CC(C)(C)C(OCc1cn([C@@H]2O[C@H](CO)[C@@H](O)[C@H]2O)c(=O)[nH]c1=N)c1ccccc1 (stereo partly specified)
Activity [1]: 10.91% | inhibition at 100 µM [2]: 13.1%

O=c1[nH]c(=O)n([C@@H]2O[C@H](CO)[C@@H](O)[C@H]2O)cc1COC(c1ccccc1)C1CCCCC1 (stereo partly specified)
Activity [1]: 16.28% | inhibition at 100 µM [2]: 15.9%

CC(C)(C)C(OCc1cn([C@@H]2O[C@H](CO)[C@@H](O)[C@H]2O)c(=O)[nH]c1=O)c1ccccc1Cl (stereo partly specified)
Activity [1]: 20.09% | inhibition at 100 µM [2]: 37.2%

CCC(OCc1cn([C@@H]2O[C@H](CO)[C@@H](O)[C@H]2O)c(=O)[nH]c1=O)c1ccccc1 (stereo partly specified)
Activity [1]: 8.2% | inhibition at 100 µM [2]: 22.1%

CC(OCc1cn([C@H]2O[C@H](CO)[C@@H](O)[C@H]2O)c(=O)[nH]c1=O)c1ccccc1 (stereo partly specified)
Activity [1]: 25.09% | inhibition at 100 µM [2]: 30.6%

O=c1nc(NO)ccn1[C@@H]1O[C@H](CO)[C@@H](O)[C@H]1O [N-HYDROXYCYTIDINE]
CC50 [3]: 95.5 µM | EC50 [4]: 2.3 µM | selectivity ratio [5]: 41.5
